# Experimental data reported in patent US8372866B2, “2-aryl and 2-heteroaryl 4H-1-benzopyran-4-one-6-amidino derivatives, new pharmacological agents for the treatment of arthritis, cancer and related pain” (Rottapharm S.p.A., priority 2008, dated 2013).
# Counter-ions that a name gives are not always drawn.
# How the values were obtained:
# [1] = test system: mechanical hyperalgesia associated with STZ-induced diabetes; experiment: STZ-induced diabetes mechanical hyperalgesia, model of neuropathic pain (Randall-Selitto); format: in vivo, rat
# Method: Painful diabetic neuropathy is one of the most common complications of insulin-dependent diabetes in man; in particular, diabetes can be associated with neuropathic pain which fails to be treated by classical analgesics. Streptozotocin (STZ)-induced diabetes in the rat has been increasingly used as a model of painful diabetic neuropathy to assess the efficacies of potential analgesic agents (C. Courteix, Pain 1993, 53, 81-8). A representative compound of the invention was tested for efficacy in reducing mechanical hyperalgesia associated with STZ-induced diabetes in the rat, according to the experimental model as described by the literature. Diabetes was produced with the injection of a single dose (75 mg/Kg i.p.) of STZ. In the following four weeks after the induction of diabetes the clinical symptoms (weight, body and skin temperature, motility and hyperglycemia) progressively developed by the animals, are strictly monitored.
# After four weeks, the scores obtained in diabetic rats to various pain stimuli (in particular mechanical stimuli) were greater than those in normal rats, indicating hyperalgesia. The hyperalgesia induced by diabetes was evaluated using the Randall-Selitto method as above described, and quantitated using the analgesimeter. Also in this case, the difference in the mechanical pain threshold between the basal value (generally 230-250 g) and the one tolerated by the animals treated with the drug, is defined as mechanical hyperalgesia. The compound of the invention was administered i.p. (solution, Tween 80, 10% in saline) at different doses, and mechanical hyperalgesia was measured at the reported time, as maximum percent effect (MPE) which represents the difference (%) in pain threshold between the animals treated with the drug and the controls that received only the vehicle, compared with the weight borne by naïf non-diabetic controls. A 100% protection means that the diabetic animals treated with the compound can tolerate the same stimulus (weight) as the naïf non-diabetic animals. MPE higher than 100% means that the diabetic animal treated with the compound can tolerate stimuli (weight) higher than the control non-diabetic animals (hypoalgesia).
# In Table 4, the effect of a representative compound of formula (I), in the above described model of neuropathic pain, is compared with some known pharmacological standards used for the clinical treatment of this pathology. In particular, from the MPE data at 0.5 hrs, the doses yielding a protection of 50% (ED50) and 100% (ED100) have been calculated.
# [2] = biological target: T1, recombinant human aggrecanase 1 (ADAMTS-4) (Homo sapiens, UniProt O75173); experiment: InviLISA Aggrecanase activity assay, aggrecanase 1; format: biochemical; details: for inhibition at 10 µM: inhibitors tested at 10 μM final concentration
# T1 construct: ADAMTS-4 aminoacids F213-A579 with C-terminal tag; purchased Invitek GmbH, Berlin
# T1 sequence (O75173 213-579): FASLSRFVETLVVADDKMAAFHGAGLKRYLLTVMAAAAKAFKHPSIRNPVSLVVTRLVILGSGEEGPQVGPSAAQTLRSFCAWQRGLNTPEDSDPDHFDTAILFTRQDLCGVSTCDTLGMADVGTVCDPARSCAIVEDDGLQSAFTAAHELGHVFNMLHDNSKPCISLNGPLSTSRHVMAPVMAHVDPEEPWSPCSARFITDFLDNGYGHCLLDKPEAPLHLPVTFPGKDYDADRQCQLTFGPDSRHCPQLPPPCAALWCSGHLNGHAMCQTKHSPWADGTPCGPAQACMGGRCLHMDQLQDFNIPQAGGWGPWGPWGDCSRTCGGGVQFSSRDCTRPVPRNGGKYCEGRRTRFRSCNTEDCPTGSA
# Method: (§1) The InviLISA Aggrecanase activity assay (Invitek GmbH, Berlin) was used to screen and characterise aggrecanase inhibitors. The assay was carried out in two steps, according to Will et al. (Will H, Dettloff M, Bendzko P, Svenshnikov P, A Quantitative Assay for aggrecanase Activity; 2005, Journal of Biomolecular Techniques, 16 (4), 459-472). A recombinant fragment of human aggrecan interglobular domain (aggrecan-IGD; T331-G458) is first digested with aggrecanase. Proteolytic cleavage of the substrate releases an aggrecan peptide with the N-terminal sequence ARGSVIL (ARGSVIL-peptide), that was then quantified with two monoclonal anti-peptide antibodies (ELISA module). For precise calculation of product, ARGSVIL-peptide standard concentrations were run in parallel.
# (§2) 1) Proteolysis of aggrecan-IGD by aggrecanase. Aggrecan-IGD was incubated with standard recombinant human aggrecanase 1 (ADAMTS-4 aminoacids F213-A579 with C-terminal tag) or standard recombinant human aggrecanase 2 (ADAMTS-5 aminoacids S262-G625 with C-terminal tag) in the absence (total enzymatic activity) or presence (modulated enzymatic activity) of inhibitors to be tested. Enzymes were pre-incubated with the inhibitors or the appropriate concentration of diluent as control (DMSO 0.25% final concentration in proteolysis), at 4° C. for 30 min prior to assaying their activity. Five microliters of mix enzyme-inhibitor were added to the substrate (0.1 μM final concentration) in a total volume of 100 μL and incubated for 15 minutes at 37° C. The reaction was terminated with EDTA-containing buffer. The inhibitors were tested at 10 μM final concentration and compounds achieving ≧50% inhibitory effect were evaluated for IC50 calculation, in a range generally extended from 0.1 to 10 μM final concentration.
# (§3) 2) Aggrecan peptide ELISA. ARGSVIL-peptide standard, proteolytic digestion of Aggrecan-IGD with standard aggrecanases and test samples were incubated in microtiter wells pre-coated with anti-ARGSVIL-neoepitope antibody. ARGSVIL-peptide is bound to the coated antibody, while other components are removed by washing and aspiration. The bound ARGSVIL-peptide was detected with a second peroxidase-labelled antibody. Any excess of the conjugate was removed by washing and aspiration. The amount of peroxidase bound to different wells was determined in reactions with peroxidase substrate TMB. The reactions are stopped by addition of sulphuric acid solution and absorbance is read at 450 nm in a microtiter plate spectrophotometer.
# [3] = biological target: T2, recombinant human aggrecanase 2 (ADAMTS-5) (Homo sapiens, UniProt Q9UNA0); experiment: InviLISA Aggrecanase activity assay, aggrecanase 2; format: biochemical; details: for inhibition at 10 µM: inhibitors tested at 10 μM final concentration
# T2 construct: ADAMTS-5 aminoacids S262-G625 with C-terminal tag; purchased Invitek GmbH, Berlin
# T2 sequence (Q9UNA0 262-625): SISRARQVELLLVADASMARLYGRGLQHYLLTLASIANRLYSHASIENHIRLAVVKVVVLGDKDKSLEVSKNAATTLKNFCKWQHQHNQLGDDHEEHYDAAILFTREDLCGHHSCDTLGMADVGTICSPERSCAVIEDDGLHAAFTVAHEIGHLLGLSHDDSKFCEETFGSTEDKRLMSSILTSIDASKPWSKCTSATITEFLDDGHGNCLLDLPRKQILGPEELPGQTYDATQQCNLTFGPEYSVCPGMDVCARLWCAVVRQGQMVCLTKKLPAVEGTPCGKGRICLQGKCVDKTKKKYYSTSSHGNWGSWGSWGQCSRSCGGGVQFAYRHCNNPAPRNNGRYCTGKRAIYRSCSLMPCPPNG
# Method: as §1, §2, §3
# [4] = test system: CFA-induced prolonged inflammation; experiment: CFA model of chronic inflammatory pain (Randall-Selitto); format: in vivo, rat
# [5] = 10 mg/Kg IP, NE = not effective
# [6] = 30 mg/Kg IP, NE = not effective
# [7] = 100 mg/Kg IP, NE = not effective
# [8] = 300 mg/Kg IP, NE = not effective
smiles,measurement,setting,value
CN(C)CCC=C1c2ccccc2CCc2ccccc21 [Amitriptyline],MPE 0.5 hrs,"[1]; 3 mg/Kg IP, NE = not effective",44%
same,MPE 1.5 hrs,"[1]; 3 mg/Kg IP, NE = not effective",40%
same,MPE 0.5 hrs,[1]; [5],68%
same,MPE 1.5 hrs,[1]; [5],77%
same,MPE 0.5 hrs,[1]; [6],65%
same,MPE 1.5 hrs,[1]; [6],69%
same,MPE 3 hrs,[1]; [6],23%
same,ED50,"[1]; Rattus norvegicus, IP, calculated from the MPE data at 0.5 hrs, NC = not calculable, read-out: ED50 0.5 hrs",3.76 mg/kg
"CC(=N)Nc1ccc2oc(-c3ccc(-n4ccnc4)cc3)c(O)c(=O)c2c1 [Example 5, 2-[(4-imidazol-1-yl)-phenyl]-3-hydroxy-6-[(1-iminoethyl)amino]-4H-1-benzopyran-4-one hydrochloride]",inhibition at 10 µM,[2],30%
same,IC50,[3],0.87 µM
"N=C(CC1CC1)Nc1ccc2oc(-c3ccc(-n4ccnc4)cc3)c(O)c(=O)c2c1 [Example 6, 2-[(4-imidazol-1-yl)-phenyl]-3-hydroxy-6-[(1-iminoethyl-2-cyclopropyl)amino]-4H-1-benzopyran-4-one dihydrochloride monohydrate]",IC50,[2],1.61 µM
same,IC50,[3],0.2 µM
COCCC(=N)Nc1ccc2oc(-c3ccc(-n4ccnc4)cc3)c(O)c(=O)c2c1 [Example 7],inhibition at 10 µM,[2],31%
same,IC50,[3],2.4 µM
"CC(=N)Nc1ccc2oc(-c3cccc(-n4ccnc4)c3)c(O)c(=O)c2c1 [Example 8, 2-[(3-(imidazol-1-yl)-phenyl]-3-hydroxy-6-[(1-iminoethyl)amino]-4H-1-benzopyran-4-one dihydrochloride]",IC50,[3],10 µM
"CC(=N)Nc1ccc2oc(-c3ccc(S(C)(=O)=O)cc3)c(O)c(=O)c2c1 [Example 9, 2-(4-methansulfonylphenyl)-3-hydroxy-6-[(1-iminoethyl)amino]-4H-1-benzopyran-4-one hydrochloride]",inhibition at 10 µM,[2],20%
same,IC50,[3],11.5 µM
"CC(=N)Nc1ccc2oc(-c3ccc(O)c(O)c3)c(O)c(=O)c2c1 [Example 10, 2-(3,4-dihydroxyphenyl)-3-hydroxy-6-[(1-iminoethyl)amino]-4H-1-benzopyran-4-one hydrochloride]",IC50,[2],0.61 µM
same,IC50,[3],3.5 µM
"N=C(CC1CC1)Nc1ccc2oc(-c3ccc(O)cc3)c(O)c(=O)c2c1 [Example 11, 2-(4-hydroxyphenyl-3-hydroxy-6-[(1-iminoethyl-2-cyclopropyl)amino]-4H-1-benzopyran-4-one hydrochloride]",inhibition at 10 µM,[2],30%
same,inhibition at 10 µM,[3],40%
"COc1ccc(-c2oc3ccc(NC(C)=N)cc3c(=O)c2O)cc1 [Example 12, 2-(4-methoxyphenyl)-3-hydroxy-6-[(1-iminoethyl)amino]-4H-1-benzopyran-4-one hydrochloride monohydrate]",IC50,[2],2.7 µM
same,IC50,[3],1.12 µM
"COc1ccc(-c2oc3ccc(NC(=N)CO)cc3c(=O)c2O)cc1 [Example 13, 2-(4-methoxyphenyl)-3-hydroxy-6-[(1-iminoethyl-2-hydroxy)amino]-4H-1-benzopyran-4-one hydrochloride monohydrate]",inhibition at 10 µM,[2],0%
same,IC50,[3],2.8 µM
"CC(=N)Nc1ccc2oc(-c3ccc(O)nc3)c(O)c(=O)c2c1 [Example 21, 2-(6-hydroxypyridin-3-yl)-3-hydroxy-6-[(1-iminoethyl)amino]-4H-1-benzopyran-4-one hydrochloride]",inhibition at 10 µM,[3],20%
"CC(=N)Nc1ccc2oc(-c3ccc(OCc4ccccc4)cc3)c(O)c(=O)c2c1 [Example 22, 2-[(4-benzyloxy-phenyl]-3-hydroxy-6-[(1-iminoethyl)amino]-4H-1-benzopyran-4-one hydrochloride]",inhibition at 10 µM,[3],34%
NCC1(CC(=O)O)CCCCC1 [Gabapentin],MPE 0.5 hrs,[1]; [6],39%
same,MPE 1.5 hrs,[1]; [6],41%
same,MPE 0.5 hrs,[1]; [7],55%
same,MPE 1.5 hrs,[1]; [7],38%
same,MPE 0.5 hrs,[1]; [8],47%
same,MPE 1.5 hrs,[1]; [8],36%
"CN1C(C(=O)Nc2ccccn2)=C(O)c2ccccc2S1(=O)=O [Piroxicam, reference compound]",MPE 0.5 hrs,"[4]; 3 mg/Kg IP, NE = not effective",25%
same,MPE 1.5 hrs,"[4]; 3 mg/Kg IP, NE = not effective",40%
same,MPE 0.5 hrs,[4]; [5],46%
same,MPE 1.5 hrs,[4]; [5],73%
same,MPE 3 hrs,[4]; [5],62%
same,MPE 0.5 hrs,[4]; [6],102%
same,MPE 1.5 hrs,[4]; [6],111%
same,MPE 3 hrs,[4]; [6],54%
same,MPE 6 hrs,[4]; [6],24%
same,MPE 24 hrs,[4]; [6],38%
same,ED100 0.5 hrs,"[4]; IP, calculated from the MPE data at 0.5 hrs",34.33 mg/kg
same,ED50,"[4]; Rattus norvegicus, IP, calculated from the MPE data at 0.5 hrs, read-out: ED50 0.5 hrs",7.65 mg/kg
